The results in this text go back to patent US11498923B2 (Merck Sharp & Dohme Corp., priority 2017, dated 2022).

The target in the experiment is T1, human A2a receptor (Homo sapiens, UniProt P29274).
T1 construct: purchased Perkin-Elmer RBHA2AM400UA; host or cells: HEK293 cells, used as a membrane preparation
T1 sequence (P29274 whole entry): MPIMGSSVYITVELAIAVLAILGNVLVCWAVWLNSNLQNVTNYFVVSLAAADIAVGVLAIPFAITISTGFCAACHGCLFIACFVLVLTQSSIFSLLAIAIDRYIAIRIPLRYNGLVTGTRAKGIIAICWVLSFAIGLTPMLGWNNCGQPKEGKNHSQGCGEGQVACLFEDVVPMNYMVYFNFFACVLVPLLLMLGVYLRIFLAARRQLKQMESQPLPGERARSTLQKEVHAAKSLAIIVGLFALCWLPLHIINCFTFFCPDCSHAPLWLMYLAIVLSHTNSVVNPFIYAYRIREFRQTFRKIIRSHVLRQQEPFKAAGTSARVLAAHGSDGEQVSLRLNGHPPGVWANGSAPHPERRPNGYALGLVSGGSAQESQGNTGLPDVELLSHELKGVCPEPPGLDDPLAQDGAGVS
The experiment can be described thus: A2a receptor competition binding assay (Scintillation Proximity). As to conditions: membranes from HEK293 cells expressing human A2a receptor; 0.5 nM tritiated ligand; Cheng-Prusoff; read-out: A2a Ki. A digest of the protocol:
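HEK293 membranes bearing the human receptor, pretreated with adenosine deaminase, competed against 0.5 nM tritiated pyrazolotriazolopyrimidine antagonist with compound at 3000–0.15 nM final in DPBS plus 10 mM MgCl2. SPA bead readout after 1 h at room temperature; Ki from EC50 via Cheng-Prusoff.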
For the molecule `Nc1nc2c(F)ccc(Br)c2c2nc(Cc3ccccc3)cn12` [Ex-12, 2-benzyl-10-bromo-7-fluoroimidazo[1,2-c]quinazolin-5-amine], the Ki turned out to be 7.7 nM. As to `COc1cccc2c1nc(N)n1cc(Cc3ccccc3N3CCCCC3)nc21` [Ex-36, 7-methoxy-2-(2-(piperidin-1-yl)benzyl)imidazo[1,2-c]quinazolin-5-amine], the Ki is 2.8 nM.

With `COc1cccc2c1nc(N)n1cc(C(=O)N3C[C@@H](F)[C@H](F)C3)nc21` [Ex-175, (5-amino-7-methoxyimidazo[1,2-c]quinazolin-2-yl)((3R,4R)-3,4-difluoropyrrolidin-1-yl)methanone], the Ki is 21 nM. For `COc1cccc2c1nc(N)n1cc(C(=O)N3CCOC(C(F)(F)F)C3)nc21` (centres unmarked) [Ex-185, (5-amino-7-methoxyimidazo[1,2-c]quinazolin-2-yl)(2-(trifluoromethyl)morpholino) methanone] the value was 65 nM; for `Nc1nc2c(F)cccc2c2nc(CN3Cc4ccc(F)cc4C3)cn12` [Ex-124, 7-fluoro-2-((5-fluoroisoindolin-2-yl)methyl)imidazo[1,2-c]quinazolin-5-amine], 18 nM; for `CN(Cc1cccc2cccnc12)C(=O)c1cn2c(N)nc3ccccc3c2n1` [Ex-160, 5-amino-N-methyl-N-(quinolin-8-ylmethyl)imidazo[1,2-c]quinazoline-2-carboxamide], 80.6 nM. As to `COc1cccc2c1nc(N)n1cc(Cc3cccc(F)c3)nc21` [Ex-22, 2-(3-fluorobenzyl)-7-methoxyimidazo[1,2-c]quinazolin-5-amine], the Ki was 1.9 nM. For the molecule `COc1cccc2c1nc(N)n1cc(CN3CCc4ccccc4C3)nc21` [Ex-121, 2-((3,4-dihydroisoquinolin-2(1H)-yl)methyl)-7-methoxyimidazo[1,2-c]quinazolin-5-amine], the Ki was 3.7 nM. For `COc1cccc2c1nc(N)n1cc(Cc3cccnc3F)nc21` [Ex-42, 2-((2-fluoropyridin-3-yl)methyl)-7-methoxyimidazo[1,2-c]quinazolin-5-amine] the value was 2.8 nM; for `Nc1nc2c(F)cccc2c2nc(CN3CCc4ccc(CC(=O)Nc5ccccn5)cc4C3)cn12` [Ex-131, 2-(2-((5-amino-7-fluoroimidazo[1,2-c]quinazolin-2-yl)methyl)-1,2,3,4-tetrahydroisoquinolin-7-yl)-N-(pyridin-2-yl)acetamide], 8.4 nM. Consider `COc1cccc2c1nc(N)n1cc(CN3Cc4cccnc4C3)nc21` [Ex-122, 2-((5,7-dihydro-6H-pyrrolo[3,4-b]pyridin-6-yl)methyl)-7-methoxyimidazo[1,2-c]quinazolin-5-amine], for which the Ki was 11 nM. As to `COc1cccc2c1nc(N)n1cc(C(=O)N3CCCC(OC)C3)nc21` (centres unmarked) [Ex-169, (5-amino-7-methoxyimidazo[1,2-c]quinazolin-2-yl)(3-methoxypiperidin-1-yl)methanone], the Ki was 34 nM. Consider `COc1ccc(-c2ccc(Cc3cn4c(N)nc5c(F)cccc5c4n3)cc2)cc1` [Ex-78, 7-fluoro-2-((4′-methoxy-[1,1′-biphenyl]-4-yl)melhyl)imidazo[1,2-c]quinazolin-5-amine], for which the Ki came out at 120 nM. For the molecule `COc1ccc(C(=O)N2CCC(Cc3cn4c(N)nc5c(F)cccc5c4n3)CC2)nc1` [Ex-327, (4-((5-amino-7-fluoroimidazo[1,2-c]quinazolin-2-yl)-methyl)piperidin-1-yl)(5-methoxypyridin-2-yl)methanone], the Ki stood at 21 nM. Take `COc1cccc2c1nc(N)n1cc(C(=O)N3CCC[C@@H]3C)nc21` [Ex-216, (S)-(5-amino-7-methoxyimidazo[1,2-c]quinazolin-2-yl)(2-methylpyrrolidin-1-yl)methanone]: the Ki was determined as 10 nM.

With `Nc1nc2c(F)cccc2c2nc(-c3ccccc3CO)cn12` [Ex-107, (2-(5-amino-7-fluoroimidazo[1,2-c]quinazolin-2-yl)phenyl)methanol], the Ki worked out at 4.3 nM. The figure for `COc1cccc2c1nc(N)n1cc(Cc3ccccc3N(C)C)nc21` [Ex-20, 2-(2-(dimethylamino)benzyl)-7-methoxyimidazo[1,2-c]quinazolin-5-amine] is 1.4 nM; for `Nc1nc2ccccc2c2nc(C(=O)NCc3ccc(F)cc3F)cn12` [Ex-158, 5-amino-N-(2,4-difluorobenzyl)imidazo[1,2-c]quinazoline-2-carboxamide] it is 33.9 nM.

Take `COc1cccc2c1nc(N)n1cc(Cc3ccnc(N4CCN(C(C)=O)CC4)c3)nc21` [Ex-46, 1-(4-(4-((5-amino-7-methoxyimidazo[1,2-c]quinazolin-2-yl)methyl)pyridin-2-yl)piperazin-1-yl)ethan-1-one]: the inhibitory constant (Ki) came to 7.4 nM. For `Nc1nc2c(F)cccc2c2nc(Cc3ccccc3CN3CCN(c4ncccn4)CC3)cn12` [Ex-71, 7-fluoro-2-(2-((4-(pyrimidin-2-yl)piperazin-l-yl)methyl)benzyl) imidazo[1,2-c]quinazolin-5-amine] the value was 5.3 nM. `Nc1nc2c(F)cccc2c2nc(CN3Cc4ccc(Br)cc4C3)cn12` [Ex-126, 2-((5-bromoisoindolin-2-yl)methyl)-7-fluoroimidazo[1,2-c]quinazolin-5-amine]: the Ki is 38 nM. Turning to `COc1cccc2c1nc(N)n1cc(C(=O)N3CCCC(OC)(OC)C3)nc21` [Ex-232, (5-amino-7-methoxyimidazo[1,2-c]quinazolin-2-yl)(3,3-dimethoxypiperidin-1-yl)methanone], the Ki turned out to be 18 nM. For `COc1cccc2c1nc(N)n1cc(C(=O)N3CCO[C@@H](C)C3)nc21` [Ex-182, (S)-(5-amino-7-methoxyimidazo[1,2-c]quinazolin-2-yl)(2-methylmorpholino) methanone] the value was 75 nM; for `Nc1nc2c(F)cccc2c2nc(Cc3cccc(Cc4ccccc4)c3)cn12` [Ex-34, 2-(3-benzylbenzyl)-7-fluoroimidazo[1,2-c]quinazolin-5-amine], 21 nM; for `Nc1nc2c(F)cccc2c2nc(C(=O)N3CCc4cc(-c5ccc(F)c(F)c5)ccc4C3)cn12` [Ex-289, (5-amino-7-fluoroimidazo[1,2-c]quinazolin-2-yl)(6-(3,4-difluorophenyl)-3,4-dihydroisoquinolin-2(1H)-yl)methanone], 640 nM. The figure for `Nc1nc2c(F)cccc2c2nc(Cn3cc(-c4ccc(-c5cccnc5)cc4)nn3)cn12` [Ex-98, 7-fluoro-2-((4-(4-(pyridin-3-yl)phenyl)-1H-1,2,3-triazol-1-yl)methyl)imidazo[1,2-c)quinazolin-5-amine] is 6.7 nM; for `CC(=O)Nc1ccc2c(c1)CCN(Cc1cn3c(N)nc4c(F)cccc4c3n1)C2` [Ex-128, N-(2-((5-amino-7-fluoroimidazo[1,2-c]quinazolin-2-yl)methyl)-1,2,3,4-tetrahydroisoquinolin-6-yl)acetamide] it is 97 nM; for `Nc1nc2c(F)cccc2c2nc(CN3CCOc4ccccc43)cn12` [Ex-117, 2-((2,3-dihydro-4H-benzo[b][1,4]oxazin-4-yl)methyl)-7-fluoroimidazo[1,2-c]quinazolin-5-amine] it is 4 nM. For `Nc1nc2c(F)cccc2c2nc(C(=O)N3CCCC4(CCNC4)C3)cn12` (centres unmarked) [Ex-268, (5-amino-7-fluoroimidazo[1,2-c]quinazolin-2-yl)(2,7-diazaspiro[4.5]decan-7-yl)methanone] the value was 66 nM.

As a reminder, the Ki is a dissociation constant, usually derived from enzyme kinetics or from competition with a known ligand.
